Results from patent publication US20150057375A1, “USE OF IMPROVED N-ALKYL PYRROLIDONE SOLVENT” (TAMINCO, priority 2012, published 2015).
“Also recorded” adds a separate entry of the source.

Key:
rat = details: in vivo; cited from earlier work
[1] = EU classification / screening test; cited from earlier work
[2] = test system: female Han Wistar rat (embryo and foetus); assay: Screening study of effects on development of the embryo and foetus after gavage of pregnant rats (similar to OECD 422); type: in vivo; details: for Bone and cartilage abnormalities and variations / ossification and supernumerary ribs; test item-related effects in the foetuses / Weights of the foetuses: 100 mg/kg body weight/day to dams
Description: The purpose of this study was to detect effects of 4 test items or compounds on the development of the embryo and foetus consequent to exposure of the female Han Wistar rat to the test items from day 6 post coitum (implantation) to day 20 post coitum (the day prior to Caesarean section). Particular attention was given to the foetal skeleton. Each group received one test compound, at a dose level of 100 or 500 mg/kg/day. The results were compared to a negative control group, which were administered distilled water (Aqua dest.).
Each group consisted of 5 mated females, treated by gavage, once daily as follows:
A standard dose volume of […] body weight with a daily adjustment to the actual body weight was used.
The foetuses were removed from the uterus, sexed, weighed individually, examined for gross external abnormalities, sacrificed by a subcutaneous injection of sodium pentobarbital, eviscerated and with the exception of over the paws, the skin was removed and discarded. Carcasses were processed through solutions of ethanol, glacial acetic acid with Alcian blue (for cartilage staining), potassium hydroxide with Alizarin red S (for clearing and staining ossified bone) and aqueous glycerine for preservation and storage. The skeletons were examined and all abnormal findings and variations were recorded.

[3] = 100 mg/kg body weight/day, gavage
[4] = 500 mg/kg body weight/day to dams
[5] = 500 mg/kg body weight/day, gavage
[6] = 500 mg/kg body weight/day, gavage once daily, day 6-20 post coitum, 5 mated females per group

SMILES | Weights of the foetuses [2] | Weights of the foetuses (male and female) [2, 4] | Maternal food consumption at start of treatment, days 6-9 p.c. [2, 5] | Bedding in the mouth (females/dams affected) [2, 6] | Reprotoxicity [1] | Bone and cartilage abnormalities and variations / ossification and supernumerary ribs; test item-related effects in the foetuses [2] | Maternal mean body weight, body weight gain and corrected body weight gain [2, 3] | Maternal mean food consumption vs control group [2, 3] | Incidence of zygomatic arch fusion in the skull of foetuses [2, 4] | Maternal absolute body weight [2, 5] | Maternal body weight gain [2, 5] | Maternal corrected body weight gain [2, 5] | other results
CN1CCCC1=O [NMP, N-methylpyrrolidone] |  |  |  |  | reprotoxic category 2 |  |  |  |  |  |  |  | Toxicity, LD50 oral rat (rat): 3914 mg/kg
CC1CCC(=O)N1C (centres unmarked) [DMP, 1,5-dimethylpyrrolidone] |  |  |  |  | suspected as being reprotoxic |  |  |  |  |  |  |  | 
CC(C)CN1CCCC1=O [N-isobutylpyrrolidone] | not affected |  |  |  |  | no test item-related findings; also recorded: No test item-related effects | no effects; also recorded: not affected | no effects |  |  |  |  | 

The next lines start with results.

Weights of the foetuses [2] | Weights of the foetuses (male and female) [2, 4] | Maternal food consumption at start of treatment, days 6-9 p.c. [2, 5] | Bedding in the mouth (females/dams affected) [2, 6] | SMILES | Reprotoxicity [1] | Bone and cartilage abnormalities and variations / ossification and supernumerary ribs; test item-related effects in the foetuses [2] | Maternal mean body weight, body weight gain and corrected body weight gain [2, 3] | Maternal mean food consumption vs control group [2, 3] | Incidence of zygomatic arch fusion in the skull of foetuses [2, 4] | Maternal absolute body weight [2, 5] | Maternal body weight gain [2, 5] | Maternal corrected body weight gain [2, 5] | other results
not affected |  |  |  | CCCCN1CCCC1=O [N-n-butylpyrrolidone] |  | no test item-related findings; also recorded: No test item-related effects | No effects | No effects; also recorded: not considered to have been affected |  |  |  |  | Bedding in the mouth (females affected) ([2]; 100 mg/kg body weight/day, gavage once daily, day 6-20 post coitum, 5 mated females per group): one female
 | statistically significantly reduced | statistically significantly reduced | all females | CCCN1CCCC1=O [N-n-propylpyrrolidone] |  |  |  |  | increased incidence | at no time statistically significantly reduced | statistically significantly reduced | reduced without statistical significance | Incidence of non-ossified cervical vertebral bodies and supernumerary ribs in foetuses [2, 4]: slightly increased incidence; Mean food consumption compared to the control group ([2]; 500 mg/kg body weight/day, treatment period days 6-21 p.c.): −9.1%; Maternal corrected body weight gain ([2]; 500 mg/kg body weight/day, control group 11.1%): 7.6%; Maternal body weight gain over the treatment period ([2]; 500 mg/kg body weight/day, control group 49%): 36%
 | statistically significantly reduced | decreased slightly | 4 | CC(C)N1CCCC1=O [N-isopropylpyrrolidone] |  |  |  |  | slightly increased | did not have a clear effect | statistically significantly reduced | reduced but not statistically significantly | Incidence of cervical ribs in foetuses [2, 4]: clearly increased incidence; Incompletely ossified cranial structures in foetuses [2, 4]: slightly increased; Number of foetuses per dam [2, 4]: decreased; Post-implantation loss and embryonic resorptions [2, 4]: increased; Maternal mean food consumption after days 6-9 p.c. / overall vs control group [2, 5]: recovered thereafter
